Results on 19 compounds are retold here after patent US10787442B2, “Modulators of indoleamine 2,3-dioxygenase” (GLAXOSMITHKLINE INTELLECTUAL PROPERTY DEVELOPMENT LIMITED, priority 2016, dated 2020).

The structures appear in SMILES notation. Bounds are passed on as bounds.

The test system of the data set is human peripheral blood mononuclear cells (PBMC). The experiment in a line: PBMC cytotoxicity assay (CellTiter-Glo). Format: cell-based. The settings on record: cytotoxicity in stimulated PBMC, recorded as pCC50. Here is the method: Compounds of the present invention were tested via high-throughput cellular assays utilizing detection of kynurenine via mass spectrometry and cytotoxicity as end-points. […] Compounds with IDO1 inhibitory properties decreased the amount of kynurenine produced by the cells via the tryptophan catabolic pathway. Cellular toxicity due to the effect of compound treatment was measured using CellTiter-Glo® reagent (CTG) (Promega Corporation, Madison, Wis.), which is based on luminescent detection of ATP, an indicator of metabolically active cells.
In preparation for the assays, test compounds were serially diluted 3-fold in DMSO from a typical top concentration of 1 mM or 5 mM and plated at 0.5 μL in 384-well, polystyrene, clear bottom, tissue culture treated plates with lids (Greiner Bio-One, Kremsmünster, Austria) to generate 11-point dose response curves. Low control wells (0% kynurenine or 100% cytotoxicity) contained either 0.5 μL of DMSO in the presence of unstimulated (−IFN-γ/−LPS) PBMCs for the mass spectrometry assay or 0.5 μL of DMSO in the absence of cells for the cytotoxicity assay, and high control wells (100% kynurenine or 0% cytotoxicity) contained 0.5 μL of DMSO in the presence of stimulated (+IFN-γ/+LPS) PBMCs for both the mass spectrometry and cytotoxicity assays.
Frozen stocks of PBMCs were washed and recovered in RPMI 1640 medium (Thermo Fisher Scientific, Inc., Waltham, Mass.) supplemented with 10% v/v heat-inactivated fetal bovine serum (FBS) (Thermo Fisher Scientific, Inc., Waltham, Mass.), and 1× penicillin-streptomycin antibiotic solution (Thermo Fisher Scientific, Inc., Waltham, Mass.). The cells were diluted to 1,000,000 cells/mL in the supplemented RPMI 1640 medium. 50 μL of either the cell suspension, for the mass spectrometry assay, or medium alone, for the cytotoxicity assay, were added to the low control wells, on the previously prepared 384-well compound plates, resulting in 50,000 cells/well or 0 cells/well respectively. IFN-γ and LPS were added to the remaining cell suspension at final concentrations of 100 ng/ml and 50 ng/ml respectively, and 50 μL of the stimulated cells were added to all remaining wells on the 384-well compound plates. The plates, with lids, were then placed in a 37° C., 5% CO2 humidified incubator for 2 days.
Following incubation, the 384-well plates were removed from the incubator and allowed to equilibrate to room temperature for 30 minutes. For the cytotoxicity assay, CellTiter-Glo® was prepared according to the manufacturer's instructions, and 40 μL were added to each plate well. After a twenty minute incubation at room temperature, luminescence was read on an EnVision® Multilabel Reader (PerkinElmer Inc., Waltham, Mass.). For the mass spectrometry assay, 10 μL of supernatant from each well of the compound-treated plates were added to 40 μL of acetonitrile, containing 10 μM of an internal standard for normalization, in 384-well, polypropylene, V-bottom plates (Greiner Bio-One, Kremsmünster, Austria) to extract the organic analytes. Following centrifugation at 2000 rpm for 10 minutes, 10 μL from each well of the acetonitrile extraction plates were added to 90 μL of sterile, distilled H2O in 384-well, polypropylene, V-bottom plates for analysis of kynurenine and the internal standard on the RapidFire 300 (Agilent Technologies, Santa Clara, Calif.) and 4000 QTRAP MS (SCIEX, Framingham, Mass.). MS data were integrated using Agilent Technologies' RapidFire Integrator software, and data were normalized for analysis as a ratio of kynurenine to the internal standard.

Turning to `CNC(=O)c1nnc(Nc2cc([C@H](C)CC(=O)O)cnc2N(CC(C)C)C2CCCCC2)s1` [Example 64, (3R)-3-{6-[cyclohexyl(2-methylpropyl)amino]-5-{[5-(methylcarbamoyl)-1,3,4-thiadiazol-2-yl]amino}pyridin-3-yl}butanoic acid], the “PBMC_TOX PXC50” value is on record as below 5.0.
The same measure for `CC(C)CN(c1ncc([C@H](C)CC(=O)O)cc1Nc1cnc(C#N)nc1)C1CCOCC1` [Example 65, (3R)-3-{5-[(2-cyanopyrimidin-5-yl)amino]-6-[(2-methylpropyl)(oxan-4-yl)amino]pyridin-3-yl}butanoic acid]: below 5.0; for `CC(C)CN(c1ncc([C@H](C)CC(=O)O)cc1Nc1ccc(C(F)(F)F)nn1)C1CCOCC1` [Example 66, (3R)-3-{6-[(2-methylpropyl)(oxan-4-yl)amino]-5-{[6-(trifluoromethyl)pyridazin-3-yl]amino}pyridin-3-yl}butanoic acid]: below 5.0.
The result for `CC(C)CN(c1ncc([C@H](C)CC(=O)O)cc1Nc1cnc(C#N)cn1)C1CCOCC1` [Example 67, (3R)-3-{5-[(5-cyanopyrazin-2-yl)amino]-6-[(2-methylpropyl)(oxan-4-yl)amino]pyridin-3-yl}butanoic acid] reads below 5.0.
The same measure for `CC(C)CN(c1ncc([C@H](C)CC(=O)O)cc1Nc1ccc(Cl)c(Cl)n1)C1CCOCC1` [Example 68, (3R)-3-{5-[(5,6-dichloropyridin-2-yl)amino]-6-[(2-methylpropyl)(oxan-4-yl)amino]pyridin-3-yl}butanoic acid]: below 5.0.
Consider `Cc1nc(Nc2cc([C@H](C)CC(=O)O)cnc2N(CC(C)C)C2CCOCC2)ccc1Cl` [Example 69, (3R)-3-{5-[(5-chloro-6-methylpyridin-2-yl)amino]-6-[(2-methylpropyl)(oxan-4-yl)amino]pyridin-3-yl}butanoic acid], for which the “PBMC_TOX PXC50” value is below 5.0.
The result for `CC(C)CN(c1ncc([C@H](C)CC(=O)O)cc1Nc1ccc(Cl)c(C#N)n1)C1CCOCC1` [Example 70, (3R)-3-{5-[(5-chloro-6-cyanopyridin-2-yl)amino]-6-[(2-methylpropyl)(oxan-4-yl)amino]pyridin-3-yl}butanoic acid] reads below 5.0; that for `CC(C)CN(CC(F)F)c1ncc([C@H](C)CC(=O)O)cc1Nc1ccc(Cl)cn1` [Example 71, (3R)-3-{5-[(5-chloropyridin-2-yl)amino]-6-[(2,2-difluoroethyl)(2-methylpropyl)amino]pyridin-3-yl}butanoic acid], below 5.0.
The result for `CC(C)CN(CC(C)C)c1nnc(C(C)CC(=O)O)cc1Nc1nc(C(F)(F)F)ns1` (stereo not shown) [Example 72, 3-{6-[bis(2-methylpropyl)amino]-5-{[3-(trifluoromethyl)-1,2,4-thiadiazol-5-yl]amino}pyridazin-3-yl}butanoic acid] reads below 5.0; that for `CC(C)CN(c1ncc([C@H](C)CC(=O)O)cc1Nc1ccc(C(N)=O)nn1)C1CCOCC1` [Example 73, (3R)-3-{5-[(6-carbamoylpyridazin-3-yl)amino]-6-[(2-methylpropyl)(oxan-4-yl)amino]pyridin-3-yl}butanoic acid], below 5.0; that for `CC(C)CN(c1ncc([C@H](C)CC(=O)O)cc1Nc1ccc(C#N)nn1)C1CCOCC1` [Example 74, (3R)-3-{5-[(6-cyanopyridazin-3-yl)amino]-6-[(2-methylpropyl)(oxan-4-yl)amino]pyridin-3-yl}butanoic acid], below 5.0.
The same measure for `CC(C)CN(c1ncc([C@H](C)CC(=O)O)cc1Nc1ccc(Cl)cn1)C1CC(F)(F)C1` [Example 75, (3R)-3-{5-[(5-chloropyridin-2-yl)amino]-6-[(3,3-difluorocyclobutyl)(2-methylpropyl)amino]pyridin-3-yl}butanoic acid]: below 5.0; for `CC(C)CN(CCC(F)(F)F)c1ncc([C@H](C)CC(=O)O)cc1Nc1ccc(Cl)cn1` [Example 76, (3R)-3-{5-[(5-chloropyridin-2-yl)amino]-6-[(2-methylpropyl)(3,3,3-trifluoropropyl)amino]pyridin-3-yl}butanoic acid]: below 5.0; for `CC(C)CN(c1ncc([C@H](C)CC(=O)O)cc1Nc1cnc(Cl)cn1)C1CCOCC1` [Example 77, (3R)-3-{5-[(5-chloropyrazin-2-yl)amino]-6-[(2-methylpropyl)(oxan-4-yl)amino]pyridin-3-yl}butanoic acid]: below 5.0.
Take `CC(C)CN(c1ncc([C@H](C)CC(=O)NO)cc1Nc1ccc(Cl)cn1)C1CCOCC1` [Example 78, (3R)-3-{5-[(5-chloropyridin-2-yl)amino]-6-[(2-methylpropyl)(oxan-4-yl)amino]pyridin-3-yl}-N-hydroxybutanamide]: the “PBMC_TOX PXC50” value is below 5.0.
The same measure for `CC(C)CN(c1ncc([C@H](C)CC(=O)NS(C)(=O)=O)cc1Nc1ccc(Cl)cn1)C1CCOCC1` [Example 79, (3R)-3-{5-[(5-chloropyridin-2-yl)amino]-6-[(2-methylpropyl)(oxan-4-yl)amino]pyridin-3-yl}-N-methanesulfonylbutanamide]: below 5.0.
The same measure for `CC(C)CN(c1ncc([C@H](C)CC(=O)NS(=O)(=O)N(C)C)cc1Nc1ccc(Cl)cn1)C1CCOCC1` [Example 80, (3R)-3-{5-[(5-chloropyridin-2-yl)amino]-6-[(2-methylpropyl)(oxan-4-yl)amino]pyridin-3-yl}-N-(dimethylsulfamoyl)butanamide]: below 5.0.
`CC(C)CN(c1ncc([C@H](C)CC(=O)O)cc1Nc1nc(Cl)ns1)C1CC(F)(F)C1` [Example 81]: the “PBMC_TOX PXC50” value is reported as below 5.0.
The same measure for `CC(C)CN(c1cnc([C@H](C)CC(=O)O)cc1Nc1ccc(Cl)cn1)C1CCOCC1` [Example 82, (3R)-3-{4-[(5-chloropyridin-2-yl)amino]-5-[(2-methylpropyl)(oxan-4-yl)amino]pyridin-2-yl}butanoic acid]: below 5.0.
